Results reported in patent publication US10626436B2, “Method of determining a compositional or functional characteristic of a cell culture media” (Valitacell Limited, priority 2015, dated 2020).

Tests used:
[1] = tested on: reference CHO producer cell; test: Growth of reference CHO producer cell in static microplate culture with a cell stressor in four lots of the same cell culture media; assay type: cell-based; details: stressor at an inhibitory concentration, each in triplicate, FIGS. 3-5
Procedure: FIG. 3: A reference CHO producer cell was grown in static microplate culture in the presence of cobalt chloride (CoCL2) at an inhibitory concentration and four different lots of the same cell culture media (each lot provided in triplicate).
FIG. 4: A reference CHO producer cell was grown in static microplate culture in the presence of menadione sodium bisulphite (MSB2) at an inhibitory concentration and four different lots of the same cell culture media (each lot provided in triplicate).
FIG. 5: A reference CHO producer cell was grown in static microplate culture in the presence of sodium lactate (NaLac) at an inhibitory concentration and four different lots of the same cell culture media (each lot provided in triplicate).

CHO cell line = test: Chemical fingerprinting: growth of CHO cells with cell stressors in two CD-CHO media lots (Presto Blue assay); assay type: cell-based; details: CD-CHO media lot 66 vs lot 28; stressor at IC50 concentration, both MSB concentrations; FIG. 2; p<0.05 (Benjamini-Hockberg)
Procedure: Two different batches of “CD-CHO media” (Invitrogen, Paisley, UK) were obtained. A CHO cell line was grown in these […] media for 3 passages in 30 ml shake flask culture. “Presto Blue” (Invitrogen, Paisley, UK) was mixed 1:1 with CD-CHO media and 20 ul of this was added to each well. The plate was machine shaken and subsequently incubated for 30 minutes at 37 C in a static humidified incubator. After incubation the fluorescence of the wells was measured (excitation 535 nm emission 620 nm) using a fluoroskan ascent (Thermo-Fisher, Loughborough, UK) plate reader. […] It is clear here that there were significant differences in the cell growth in these different batches of media. This was clearly significant from day 4 onwards.
To test the effect this had on the chemical fingerprint, CHO cells were sub-cultured in CD-CHO in either lot number (66) or (28) for 3 passages. Chemical fingerprinting plates were set up in duplicate to determine the growth of cells in the presence of specific cellular stressors
Using the same CHO cell line used above for the growth studies, inhibitory dose 50 (IC50) concentrations of the above chemicals were identified through growth studies. […]
After this period the level of cell growth in the plates (i.e. in the presence and absence of chemicals as mentioned above) was measured using the “Presto Blue” assay as described above. […]

## [Cl][Co][Cl] [cobalt chloride, Cobalt chloride]
[1]
  growth response of the cell in different lots of the cell culture media in the presence of the stressor: differences in growth response

## CC1(S(=O)(=O)[O-])CC(=O)c2ccccc2C1=O.[Na+] (stereo not shown) [MSB, Menadione Sodium Bisulphite]
CHO cell line
  chemical response (cell growth relative to control well) compared between media lots: clearly significant difference
[1]
  growth response of the cell in different lots of the cell culture media in the presence of the stressor: differences in growth response

## CC(O)C(=O)[O-].[Na+] (stereo not shown) [sodium lactate, Sodium lactate]
[1]
  growth response of the cell in different lots of the cell culture media in the presence of the stressor: differences in growth response
